Source: patent US8299262B2, “Pyridylmethyl-sulfonamide compounds” (BASF SE, priority 2007, dated 2012)
Where two headings read alike, the source gives them in different places.

How the values were obtained:
Pyricularia oryzae = assay type: cell-based; conditions: single compound
Colletotrichum truncatum = assay: Synergistic mixtures, microtiter test, Colletotrichum truncatum (Use Example 28); assay type: cell-based; conditions: single compound
Phytophthora infestans = assay type: cell-based; conditions: single compound, 0.00025 ppm
Gaeumannomyces graminis = assay: Synergistic mixtures, microtiter test, Gaeumannomyces graminis (Use Example 30); assay type: cell-based; conditions: single compound
Fusarium oxysporum = conditions: single compound
Puccinia recondita = assay: Synergistic mixtures, greenhouse, preventative control of brown rust on wheat caused by Puccinia recondita (Use Example 34); assay type: in vivo; conditions: single compound, untreated control 90% disease
Method: These percentages were converted into efficacies. An efficacy of 0 means that the growth level of the pathogens corresponds to that of the untreated control; an efficacy of 100 means that the pathogens were not growing.
The expected efficacies of active compound mixtures were determined using Colby's formula [R. S. Colby, Calculating synergistic and antagonistic responses of herbicide combinations, Weeds 15, 20-22 (1967)] and compared with the observed efficacies. E=x+y−x·y/100 Colby's formula • E expected efficacy, expressed in % of the untreated control, when using the mixture of the compounds A and B at the concentration a and b • x efficacy, expressed in % of the untreated control, when using compound A at a concentration of a • y efficacy, expressed in % of the untreated control, when using compound B at a concentration of b A) Microtiter Tests
The spray solutions were prepared in several steps:
The stock solution were prepared as follows: a mixture of acetone and/or dimethylsulfoxide and the wetting agent/emulsifier Wettol, which is based on ethoxylated alkylphenoles, in a relation (volume) solvent-emulsifier of 99 to 1 was added to 25 mg of the compound to give a total of 10 ml. Water was then added to total volume of 100 ml.
This stock solution was diluted with the described solvent-emulsifier-water mixture to the given concentration. The compounds pyraclostrobin, boscalid and epoxiconazole were used as commercial finished formulations and diluted with water to the stated concentration of the active compound.
The first two developed leaves of pot-grown wheat seedling were sprayed to run-off with an aqueous suspension, containing the concentration of active ingredient or their mixture as described below. The next day the plants were inoculated with spores of Puccinia recondita. To ensure the success the artificial inoculation, the plants were transferred to a humid chamber without light and a relative humidity of 95 to 99% and at temperatures between 20 and 24° C. for 24 h. Then, the plants were cultivated for 6 days in a greenhouse chamber at 20 to 24° C. and a relative humidity between 65 and 70%. The extent of fungal attack on the leaves was visually assessed as % diseased leaf area.

Thielaviopsis basicola = assay: Synergistic mixtures, microtiter test, Thielaviopsis basicola (Use Example 31); assay type: cell-based; conditions: single compound
Fusarium culmorum = assay: Synergistic mixtures, microtiter test, Fusarium culmorum (Use Example 27); assay type: cell-based; conditions: single compound
Pyrenophora teres = assay: Synergistic mixtures, microtiter test, net blotch pathogen Pyrenophora teres (Use Example 29); assay type: cell-based; conditions: single compound
Septoria tritici = assay: Synergistic mixtures, microtiter test, leaf blotch pathogen Septoria tritici (Use Example 26); assay type: cell-based; conditions: single compound, 4 ppm
Alternaria solani = assay: Synergistic mixtures, microtiter test, early blight pathogen Alternaria solani (Use Example 24); assay type: cell-based; conditions: single compound, 0.063 ppm
Phakopsora pachyrhizi = assay: Comparative greenhouse test, curative action against soybean rust Phakopsora pachyrhizi (Use Example 22); assay type: in vivo; conditions: curative spray on soybean, untreated control 100
Method: The active compounds were formulated separately or together as a stock solution comprising 25 mg of active compound which was made up to 10 ml using a mixture of acetone and/or dimethyl sulfoxide (DMSO) and the emulsifier Wettol EM 31 (wetting agent having emulsifying and dispersing action based on ethoxylated alkylphenols) in a volume ratio of solvent/emulsifier of 99 to 1. This solution was then made up to 100 ml using water. This stock solution was diluted with the solvent/emulsifier/water mixture described to the active compound concentration given below.
Leaves of potted soybean seedlings were dusted with a suspension of spores of rust of soybean (Phakopsora pachyrhizi). The plants were then placed in a chamber with high atmospheric humidity (90 to 95%), at 23 to 27° C., for 24 hours. During this time, the spores germinated and the germinal tubes penetrated into the leaf tissue. The next day, the infected plants were sprayed to runoff point with an aqueous suspension having the concentration of active compound stated in table 4 (250 ppm). After drying of the sprayed suspension, the test plants were returned to the greenhouse and cultivated at temperatures between 23 and 27° C. and at 60 to 80% relative atmospheric humidity for a further 14 days. The extent of the rust development on the leaves was then determined visually.

Verticillium dahliae = conditions: single compound, 4 ppm
Septoria glycines = assay: Microtiter test, Septoria glycines (Use Example 7); assay type: cell-based; conditions: 125 ppm; control =100%, day 7

| SMILES | Observed efficacy (%) (Pyricularia oryzae; 0.25 ppm) | Observed efficacy (%) (Gaeumannomyces graminis; 0.063 ppm) | Observed efficacy (%) (Septoria tritici) | Observed efficacy (%) (Alternaria solani) | Observed efficacy (%) (Puccinia recondita; 16 ppm) | Observed efficacy (%) (Thielaviopsis basicola; 16 ppm) | Observed efficacy (%) (Fusarium culmorum; 16 ppm) | infection in [%] at 250 ppm (Phakopsora pachyrhizi) | Observed efficacy (%) (Pyrenophora teres; 0.25 ppm) | Observed efficacy (%) (Thielaviopsis basicola; 4 ppm) | Observed efficacy (%) (Pyrenophora teres; 1 ppm) | other results |
| --- | --- | --- | --- | --- | --- | --- | --- | --- | --- | --- | --- | --- |
| COC(=O)N(OC)c1ccccc1COc1ccn(-c2ccc(Cl)cc2)n1 [Pyraclostrobin, reference compound] |  |  |  |  |  |  |  |  |  |  |  | Observed efficacy (%) (Pyricularia oryzae; 0.001 ppm): 17%; Observed efficacy (%) (Colletotrichum truncatum; 0.063 ppm): 27%; Observed efficacy (%) (Colletotrichum truncatum; 0.25 ppm): 60%; Observed efficacy (%) (Phytophthora infestans): 8%; Observed efficacy (%) (Gaeumannomyces graminis; 0.00025 ppm): 29%; Observed efficacy (%) (Gaeumannomyces graminis; 0.001 ppm): 57%; Observed efficacy (%) (Fusarium oxysporum; 0.25 ppm): 0%; Observed efficacy (%) (Puccinia recondita; 0.016 ppm): 0%; Observed efficacy (%) (Puccinia recondita; 0.063 ppm): 0%; Observed efficacy (%) (Puccinia recondita; 0.25 ppm): 0%; Observed efficacy (%) (Thielaviopsis basicola; 0.25 ppm): 19%; Observed efficacy (%) (Fusarium culmorum; 0.25 ppm): 0%; Observed efficacy (%) (Pyrenophora teres; 0.016 ppm): 52% |
| Cc1nccc(CNS(=O)(=O)c2ccc(Oc3ccccn3)cc2)c1C [Example 33] | 38% | 4% | 22% | 4% | 33% | 9% | 1% | 5% | 0% |  |  | Observed efficacy (%) (Colletotrichum truncatum; 4 ppm): 24%; Observed efficacy (%) (Gaeumannomyces graminis; 0.25 ppm): 21% |
| Cc1nccc(CNS(=O)(=O)c2ccc(Oc3ccccc3)cc2)c1C [comparative example 2, reference compound] |  |  |  |  |  |  |  | 100% |  |  |  |  |
| Cc1nccc(CNS(=O)(=O)c2ccc(Oc3ncc(C(F)(F)F)cc3Cl)cc2)c1C [Example 27] | 65% |  | 47% |  | 22% |  | 0% |  |  | 21% | 31% | Observed efficacy (%) (Pyricularia oryzae; 0.063 ppm): 65%; Observed efficacy (%) (Verticillium dahliae): 56%; Observed efficacy (%) (Colletotrichum truncatum; 16 ppm): 45%; Observed efficacy (%) (Gaeumannomyces graminis; 0.016 ppm): 58%; Observed efficacy (%) (Fusarium oxysporum; 16 ppm): 13%; Observed efficacy (%) (Puccinia recondita; 4 ppm): 0%; Observed efficacy (%) (Thielaviopsis basicola; 1 ppm): 1% |
| COc1cnccc1CNS(=O)(=O)c1ccc(Oc2ccccn2)cc1 [Example 8] |  | 0% |  | 3% |  | 6% | 0% |  | 0% | 11% | 9% | relative growth of the pathogen (Septoria glycines): at most 25% |
